Experimental data as given in patent publication US7989438B2, “Therapeutic compounds” (Istituto di Ricerche di Biologia Molecolare P. Angeletti SpA, priority 2007, dated 2011).
Where two headings read alike, the source gives them in different places.

System: HCV subgenomic replication
Experiment: Cell based HCV replication assay (subgenomic replicon in Huh-7 cells, NS3 Cell-ELISA)
Details: activity ranges
Description: Cell clones that stably maintain subgenomic HCV replicon were obtained by transfecting Huh-7 cells with an RNA replicon identical to I377neo/NS3-3′/wt described by Lohmann et al. (1999) (EMBL-genbank No. AJ242652), followed by selection with neomycin sulfate (G418). Viral replication was monitored by measuring the expression of the NS3 protein by an ELISA assay performed directly on cells grown in 96 wells microtiter plates (Cell-ELISA) using the anti-NS3 monoclonal antibody 10E5/24 (as described in published International application WO 02/59321). Cells were seeded into 96 well plates at a density of 10^4 cells per well in a final volume of 0.1 ml of DMEM/10% FCS. Two hours after plating, 50 μl of DMEM/10% FCS containing a 3× concentration of inhibitor were added, cells were incubated for 96 hours and then fixed for 10 minutes with ice-cold isopropanol. Each condition was tested in duplicate and average absorbance values were used for calculations. The cells were washed twice with PBS, blocked with 5% non-fat dry milk in PBS+0.1% Triton X100+0.02% SDS (PBSTS) and then incubated o/n at 4° C. with the 10E5/24 mab diluted in Milk/PBSTS. After washing 5 times with PBSTS, the cells were incubated for 3 hours at room temperature with Fc specific anti-mouse IgG conjugated to alkaline phosphatase (Sigma), diluted in Milk/PBSTS. After washing again as above, the reaction was developed with p-Nitrophenyl phosphate disodium substrate (Sigma) and the absorbance at 405/620 nm read at intervals. For calculations, we used data sets where samples incubated without inhibitors had absorbance values comprised between 1 and 1.5. The inhibitor concentration that reduced by 50% the expression of NS3 (IC50) was calculated by fitting the data to the Hill equation, Fraction inhibition=1−(Ai−b)/(A0−b)=[I]^n/([I]^n+[…]) where: • Ai=absorbance value of HBI10 cells supplemented with the indicated inhibitor concentration. • A0=absorbance value of HBI10 cells incubated without inhibitor. • b=absorbance value of Huh-7 cells plated at the same density in the same microtiter plates and incubated without inhibitor. • n=Hill coefficient.

[1] = Table A, Huh-7 replicon cells, 96 hours, read-out: IC50 (nM), Inhibition of HCV subgenomic replication
[2] = Table 5, various macrocycles, read-out: IC50* (nM), Inhibition of HCV subgenomic replication
[3] = Hepatitis C virus, Huh-7, Table 5, various macrocycles, read-out: IC50* (nM), Inhibition of HCV subgenomic replication

| SMILES | IC50 [1] [nM] | also measured |
| --- | --- | --- |
| CN1CCCCN(C)S(=O)(=O)NC(=O)c2ccc3c(C4CCCCC4F)c4n(c3c2)CC(COc2ccccc2-4)C1 (single isomer, unassigned) [Compound A16, (7R,S)-14-[(1R,2S) or (1S,2R)-2-fluorocyclohexyl]-18,23-dimethyl-7,8-dihydro-6H-11,7-(methanoiminothioiminobutanoiminomethano)indolo[1,2-e][1,5]benzoxazocin-15-one 17,17-dioxide] | 25 to 150 |  |
| COc1ccc2c(c1)OCC1CCN(C)CCCN(C)S(=O)(=O)NC(=O)c3ccc4c(C5CCCCC5F)c-2n(c4c3)C1 (single isomer, unassigned) [Compound A38, 14-[(1R,2S) or (1S,2R)-2-fluorocyclohexyl]-3-methoxy-18,22-dimethyl-7,8-dihydro-6H-7,11-(ethanoiminopropanoiminothioiminomethano)indolo[1,2-e][1,5]benzoxazocin-15-one 17,17-dioxide] | < 25 |  |
| CN1CCOCC2COc3ccccc3-c3c(C4CCCCC4)c4ccc(cc4n3C2)C(=O)NS(=O)(=O)N(C)CC1 (single isomer, unassigned) [Compound A39, (7R or 7S)-14-cyclohexyl-18,21-dimethyl-7,8-dihydro-6H-7,11-(methanooxyethanoiminoethanoiminothioiminomethano)indolo[1,2-e][1,5]benzoxazocin-15-one 17,17-dioxide] | < 25 |  |
| CN1CCCC2COc3ccccc3-c3c(C4CCCCC4F)c4ccc(cc4n3C2)C(=O)NS(=O)(=O)N(C)CC1 (single isomer, unassigned) [Compound A40, (7R)-14-[(1R,2S) or (1S,2R)-2-fluorocyclohexyl]-18,21-dimethyl-7,8-dihydro-6H-7,11-(propanoiminoethanoiminothioiminomethano)indolo[1,2-e][1,5]benzoxazocin-15-one 17,17-dioxide] | < 25 |  |
| CN1CCN(C)C2COc3ccccc3-c3c(C4CCCCC4F)c4ccc(cc4n3C2)C(=O)NS(=O)(=O)N(C)CC1 (single isomer, unassigned) [Example 413, (7R)-14-[(1R,2S) or (1S,2R)-2-fluorocyclohexyl]-18,21,24-trimethyl-7,8-dihydro-6H-7,11-(epiminoethanoiminoethanoiminothioiminomethano)-indolo[1,2-e][1,5]benzoxazocin-15-one 17,17-dioxide] |  | IC50 (Table 4, various macrocycles, read-out: IC50* (nM), Inhibition of HCV subgenomic replication): < 25 nM |
| CN1CCCN(C)S(=O)(=O)NC(=O)c2ccc3c(C4CCCCC4F)c4n(c3c2)CC(CC1)COc1ccccc1-4 (single isomer, unassigned) [Example 501, 14-[(1R,2S) or (1S,2R)-2-fluorocyclohexyl]-18,22-dimethyl-7,8-dihydro-6H-7,11-(ethanoiminopropanoiminothioiminomethano)indolo[1,2-e][1,5]benzoxazocin-15-one 17,17-dioxide] |  | IC50 [2]: 25 to 150 nM |
| CN1CCC2COc3ccccc3-c3c([C@H]4CCCC[C@@H]4F)c4ccc(cc4n3C2)C(=O)NS(=O)(=O)N2CCC1CC2 (single isomer, unassigned) [Example 502, 30-[(1R,2S) or (1S,2R)-2-fluorocyclohexyl]-23-methyl-18-oxa-2-thia-1,3,10,23-tetraazahexacyclo[22.2.2.1^5,9.1^8,11.1^10,20.0^12,17]hentriaconta-5(31),6,8,11(30),12,14,16-heptaen-4-one 2,2-dioxide] |  | IC50 [3]: 25 to 150 nM |
| CN1CC2CCN(CC2)S(=O)(=O)NC(=O)c2ccc3c([C@H]4CCCC[C@@H]4F)c4n(c3c2)CC(COc2ccccc2-4)C1 (single isomer, unassigned) [Example 503, 30-[(1R,2S) or (1S,2R)-2-fluorocyclohexyl]-22-methyl-18-oxa-2-thia-1,3,10,22-tetraazahexacyclo[22.2.2.1^5,9.1^8,11.1^10,20.0^12,17]hentriaconta-5(31),6,8,11(30),12,14,16-heptaen-4-one 2,2-dioxide] |  | IC50 [3]: 25 to 150 nM |
| CN1CCCN(CCN2CCCC2)S(=O)(=O)NC(=O)c2ccc3c(C4CCCCC4)c4n(c3c2)CC(CC1)COc1ccccc1-4 (single isomer, unassigned) [Example 505, (7R) or (7S)-14-cyclohexyl-22-methyl-18-(2-pyrrolidin-1-ylethyl)-7,8-dihydro-6H-7,11-(ethanoiminopropanoiminothioiminomethano)indolo[1,2-e][1,5]benzoxazocin-15-one 17,17-dioxide] |  | IC50 [2]: 25 to 150 nM |
| CC(C)N1CCCN(C)S(=O)(=O)NC(=O)c2ccc3c(C4CCCCC4)c4n(c3c2)CC(CC1)COc1ccccc1-4 (single isomer, unassigned) [Example 506, (7R) or (7S)-14-cyclohexyl-22-isopropyl-18-methyl-7,8-dihydro-6H-7,11-(ethanoiminopropanoiminothioiminomethano)indolo[1,2-e][1,5]benzoxazocin-15-one 17,17-dioxide] |  | IC50 [2]: < 25 nM |
| CN1CCCN(CCO)CCC2COc3ccccc3-c3c(C4CCCCC4)c4ccc(cc4n3C2)C(=O)NS1(=O)=O (single isomer, unassigned) [Example 507, (7R) or (7S)-14-cyclohexyl-22-(2-hydroxyethyl)-18-methyl-7,8-dihydro-6H-7,11-(ethanoiminopropanoiminothioiminomethano)indolo[1,2-e][1,5]benzoxazocin-15-one 17,17-dioxide] |  | IC50 [2]: < 25 nM |
| CN1CCCN(C)S(=O)(=O)NC(=O)c2ccc3c(C4CCCCC4)c4n(c3c2)CC(CC1)COc1ccccc1-4 (single isomer, unassigned; (+)) [Compound A13, (+)-14-cyclohexyl-18,22-dimethyl-7,8-dihydro-6H-7,11-(ethanoiminopropanoiminothioiminomethano)indolo[1,2-e][1,5]benzoxazocin-15-one 17,17-dioxide] | 25 to 150 |  |
| COc1ccc2c(c1)OCC1CCCN(C)CCN(C)S(=O)(=O)NC(=O)c3ccc4c(C5CCCCC5)c-2n(c4c3)C1 (single isomer, unassigned; (+)) [Compound A36, (+)-14-cyclohexyl-3-methoxy-18,21-dimethyl-7,8-dihydro-6H-7,11-(propanoiminoethanoiminothioiminomethano)indolo[1,2-e][1,5]benzoxazocin-15-one 17,17-dioxide] | 25 to 150 |  |
| CN1CCCN(C)S(=O)(=O)NC(=O)c2ccc3c(C4CCCCC4)c4n(c3c2)CC(CC1)COc1ccccc1-4 (single isomer, unassigned; (-)) [Compound A14, (−)-14-cyclohexyl-18,22-dimethyl-7,8-dihydro-6H-7,11-(ethanoiminopropanoiminothioiminomethano)indolo[1,2-e][1,5]benzoxazocin-15-one 17,17-dioxide] | < 25 |  |
| COc1ccc2c(c1)OCC1CCN(C)CCCN(C)S(=O)(=O)NC(=O)c3ccc4c(C5CCCCC5)c-2n(c4c3)C1 (single isomer, unassigned; (-)) [Compound A35, (−)-14-cyclohexyl-3-methoxy-18,22-dimethyl-7,8-dihydro-6H-7,11-(ethanoiminopropanoiminothioiminomethano)indolo[1,2-e][1,5]benzoxazocin-15-one 17,17-dioxide] | < 25 |  |
| COc1ccc2c(c1)OCC1CCCN(C)CCN(C)S(=O)(=O)NC(=O)c3ccc4c(C5CCCCC5)c-2n(c4c3)C1 (single isomer, unassigned; (-)) [Compound A37, (−)-14-cyclohexyl-3-methoxy-18,21-dimethyl-7,8-dihydro-6H-7,11-(propanoiminoethanoiminothioiminomethano)indolo[1,2-e][1,5]benzoxazocin-15-one 17,17-dioxide] | < 25 |  |
| CN1CCNCCN(C)S(=O)(=O)NC(=O)c2ccc3c(C4CCCCC4)c4n(c3c2)CC1COc1ccccc1-4 [Compound A1, (7R)-14-cyclohexyl-18,24-dimethyl-7,8-dihydro-6H-7,11-(epiminoethanoiminoethanoiminothioiminomethano)indolo[1,2-e][1,5]benzoxazocin-15-one 17,17-dioxide] | < 25 |  |
| CN1CCN(C)C2COc3ccccc3-c3c(C4CCCCC4)c4ccc(cc4n3C2)C(=O)NS(=O)(=O)N(C)CC1 [Compound A2, (7R)-14-cyclohexyl-18,21,24-trimethyl-7,8-dihydro-6H-7,11-(epiminoethanoiminoethanoiminothioiminomethano)indolo[1,2-e][1,5]benzoxazocin-15-one 17,17-dioxide] | < 25 |  |
| CCN1CCN(C)C2COc3ccccc3-c3c(C4CCCCC4)c4ccc(cc4n3C2)C(=O)NS(=O)(=O)N(C)CC1 [Compound A3, (7R)-14-cyclohexyl-21-ethyl-18,24-dimethyl-7,8-dihydro-6H-7,11-(epiminoethanoiminoethanoiminothioiminomethano)indolo[1,2-e][1,5]benzoxazocin-15-one 17,17-dioxide] | < 25 |  |
